Test results published in PMC10829846 (Emerging Microbes & Infections, 2023).

Experiments:
[1] = target: T1, NDM-1 (Klebsiella pneumoniae, UniProt C7C422); test: Inhibition of NDM-1 hydrolytic activity, enzymatic assay with meropenem; format: biochemical; details: for Restoration of NDM-1 activity by zinc supplementation: 1-fold or 10-fold concentration of Zn^2+; for Inhibitory mode: Lineweaver-Burk plot
[2] = tested on: EC1864; test: Sepsis model; format: in vivo, ICR mice; details: compound oral + meropenem i.v., all 10 mg/kg once daily
[3] = tested on: NDM-1 positive bacteria EC1864; test: Checkerboard assay with meropenem; format: cell-based, Escherichia coli; details: meropenem alone […]
[4] = target: T1, NDM-1; details: cited from earlier work
[5] = substrate: C[C@@H](O)[C@H]1C(=O)N2C(C(=O)O)=C(S[C@@H]3CN[C@H](C(=O)N(C)C)C3)[C@H](C)[C@H]12; test: purified protein, by the assay type; format: biochemical; details: other: meropenem as substrate of recombinant NDM-1; pH 7.5

Molecule | Restoration of NDM-1 activity by zinc supplementation [1] | Inhibitory mode [1] | Survival rate of sepsis mice, combination therapy with meropenem [2] | MIC value of meropenem with sub-MIC concentration of the compound [3] [µg/mL] | Concentration that completely inhibited NDM-1 activity [4] [µM] | Km [5] [µM] | kcat [5] [s⁻¹]
O=C(O)CN(CCN(CC(=O)O)CC(=O)O)CC(=O)O [EDTA] | partially or fully restored | non-competitive inhibition |  |  |  |  | 
O=[N+]([O-])c1ccc(O)c2ncccc12 [nitroxoline, 5-nitro-8-hydroxyquinoline] | partially or fully restored | non-competitive inhibition | did not exhibit a protective effect | 8 | 30 |  | 
recombinant NDM-1 (Klebsiella pneumoniae) (protein) MHHHHHHMPGEIRPTIGQQMETGDQRFGDLVFRQLAPNVWQHTSYLDMPGFGAVASNGLIVRDGGRVLVVDTAWTDDQTAQILNWIKQEINLPVALAVVTHAHQDKMGGMDALHAAGIATYANALSNQLAPQEGMVAAQHSLTFAANGWVEPATAPNFGPLKVFYPGPGHTSDNITVGIDGTDIAFGGCLIKDSKAKSLGNLGDADTEHYAASARAFGAAFPKASMIVMSHSAPDSRAAITHTARMADKLR |  |  |  |  |  | 54.72 | 11.71
